We go through 32 compounds from US20120213758A1, “BIARYL PDE4 INHIBITORS FOR TREATING PULMONARY AND CARDIOVASCULAR DISORDERS” (DeCODE Genetics enf, priority 2007, published 2012).

SMILES strings stand for the structures. pIC50: −log10 of the molar value. Structures can show the parent of a compound that is named as a salt. Where two headings read alike, the source gives them in different places.

In one experiment the target is hPDE4D (Homo sapiens, UniProt Q08499). Nature of the experiment: In-vitro real-time enzyme-coupled spectrophotometric assay for PDE4 enzymes (hPDE4D).
Another experiment concerns the target hPDE4B (Homo sapiens, UniProt Q07343). Nature of the experiment: In-vitro real-time enzyme-coupled spectrophotometric assay for PDE4 enzymes (hPDE4B).

hPDE4D, sequence (Q08499 whole entry): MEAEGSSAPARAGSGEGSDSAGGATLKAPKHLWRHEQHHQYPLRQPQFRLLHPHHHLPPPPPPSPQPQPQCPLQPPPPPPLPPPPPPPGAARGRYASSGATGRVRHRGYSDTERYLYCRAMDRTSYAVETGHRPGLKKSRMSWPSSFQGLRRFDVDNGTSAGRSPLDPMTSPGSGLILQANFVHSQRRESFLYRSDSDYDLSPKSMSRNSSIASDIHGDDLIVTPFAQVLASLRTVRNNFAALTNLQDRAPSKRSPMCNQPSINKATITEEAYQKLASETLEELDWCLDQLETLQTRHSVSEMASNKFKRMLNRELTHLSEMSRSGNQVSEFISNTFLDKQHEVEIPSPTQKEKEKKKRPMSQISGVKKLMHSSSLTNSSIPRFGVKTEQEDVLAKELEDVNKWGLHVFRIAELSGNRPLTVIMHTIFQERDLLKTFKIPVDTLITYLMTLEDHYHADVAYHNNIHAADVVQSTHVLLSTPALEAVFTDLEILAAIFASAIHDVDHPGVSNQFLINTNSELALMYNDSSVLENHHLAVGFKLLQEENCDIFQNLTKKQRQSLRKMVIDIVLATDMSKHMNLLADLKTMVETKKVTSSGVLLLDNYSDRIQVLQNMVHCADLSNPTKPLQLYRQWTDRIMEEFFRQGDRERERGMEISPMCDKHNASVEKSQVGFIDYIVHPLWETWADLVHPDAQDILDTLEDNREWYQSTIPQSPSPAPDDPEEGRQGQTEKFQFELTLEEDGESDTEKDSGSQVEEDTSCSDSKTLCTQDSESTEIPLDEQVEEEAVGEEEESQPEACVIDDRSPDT
hPDE4B, sequence (Q07343 whole entry): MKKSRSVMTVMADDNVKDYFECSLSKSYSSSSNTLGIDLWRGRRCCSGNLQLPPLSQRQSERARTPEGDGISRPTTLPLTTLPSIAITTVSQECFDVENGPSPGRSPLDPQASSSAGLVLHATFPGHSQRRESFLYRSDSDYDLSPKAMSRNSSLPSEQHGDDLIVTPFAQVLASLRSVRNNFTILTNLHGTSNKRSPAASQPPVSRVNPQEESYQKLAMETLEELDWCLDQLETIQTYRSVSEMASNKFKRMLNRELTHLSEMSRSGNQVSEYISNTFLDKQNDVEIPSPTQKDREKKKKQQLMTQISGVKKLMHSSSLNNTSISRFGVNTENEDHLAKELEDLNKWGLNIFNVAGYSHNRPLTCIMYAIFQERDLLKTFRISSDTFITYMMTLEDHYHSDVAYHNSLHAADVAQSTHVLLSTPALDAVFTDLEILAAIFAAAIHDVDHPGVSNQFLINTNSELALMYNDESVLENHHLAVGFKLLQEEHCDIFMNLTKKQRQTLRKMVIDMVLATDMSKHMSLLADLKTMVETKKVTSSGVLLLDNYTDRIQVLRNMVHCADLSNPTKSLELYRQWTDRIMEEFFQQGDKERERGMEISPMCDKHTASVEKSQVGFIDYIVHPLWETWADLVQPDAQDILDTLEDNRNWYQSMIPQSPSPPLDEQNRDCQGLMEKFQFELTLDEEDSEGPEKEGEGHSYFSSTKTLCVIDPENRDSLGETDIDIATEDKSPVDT

As to `COc1ccc(Cc2nnc(NC(=O)NCCC(=O)O)s2)c(F)c1-c1cccc(Cl)c1` [Example A-027, 3-{3-[5-(3′-Chloro-2-fluoro-6-methoxy-biphenyl-3-ylmethyl)-[1,3,4]thiadiazol-2-yl]-ureido}-propionic acid], the pIC50 against hPDE4D was greater than 5.30; against hPDE4B it was 4.40 to 4.70.
For `COc1ccc(Cc2ccc(NC(=O)NCC(=O)O)nc2)c(F)c1-c1cccc(Cl)c1` [Example A-028], in that order: greater than 5.30 and greater than 5.30.
For `CCOC(=O)CCCNC(=O)Nc1nnc(Cc2ccc(OC)c(-c3cccc(Cl)c3)c2F)s1` [Example A-030, 4-{3-[5-(3′-Chloro-2-fluoro-6-methoxy-biphenl-3-ylmethyl)-[1,3,4]thiadiazol-2-yl]-ureido}-butyric acid ethyl ester], in that order: greater than 5.30 and 4.70 to 5.30.
For `COc1ccc(Cc2nnc(NC(=O)NCCCC(=O)O)s2)c(F)c1-c1cccc(Cl)c1` [Example A-031, 4-{3-[5-(3′-Chloro-2-fluoro-6-methoxy-biphenyl-3-ylmethyl)-[1,3,4]thiadiazol-2-yl]-ureido}-butyric acid], in that order: greater than 5.30 and 4.70 to 5.30.
As for `COc1ccc(Cc2ccc(NC(=O)NCCC(=O)O)nc2)c(F)c1-c1cccc(Cl)c1` [Example A-032], the pIC50 against hPDE4D is greater than 5.30; at hPDE4B, 4.70 to 5.30.
With `COc1ccc(Cc2ccc(C(=O)N3CCC(C(=O)O)CC3)nc2)c(F)c1-c1cccc(Cl)c1` [Example A-034, 1-[5-(3′-Chloro-2-fluoro-6-methoxy-biphenyl-3-ylmethyl)-pyridine-2-carbonyl]-piperidine-4-carboxylic acid], the results for the pIC50 at hPDE4D and at hPDE4B were greater than 5.30 and 4.40 to 4.70, respectively.
Take `COc1ccc(Cc2ccc(NCC(=O)O)nc2)c(F)c1-c1cccc(Cl)c1` [Example A-035, [5-(3′-chloro-2-fluoro-6-methoxy-biphenyl-3-ylmethyl)-pyridin-2-ylamino]-acetic acid]: the pIC50 at hPDE4D and at hPDE4B was greater than 5.30 throughout.
Regarding `COc1ccc(Cc2ccc(O)nc2)c(F)c1-c1cccc(Cl)c1` [Example A-036], the pIC50 on hPDE4D and against hPDE4B was greater than 5.30 throughout.
`COc1ccc(Cc2ccc(N(CC(=O)O)C(C)=O)nc2)c(F)c1-c1cccc(Cl)c1` [Example A-037, {acetyl-[5-(3′-chloro-2-fluoro-6-methoxy-biphenyl-3-ylmethyl)-pyridin-2-yl]-amino}-acetic acid]: the pIC50 against hPDE4D and at hPDE4B was greater than 5.30 each time.
For the compound `COc1ccc(Cc2ccc(C(=O)N3CCC(C(=O)O)C3)nc2)c(F)c1-c1cccc(Cl)c1` (stereo not shown) [Example A-038, 1-[5-(3′-Chloro-2-fluoro-6-methoxy-biphenyl-3-ylmethyl)-pyridine-2-carbonyl]-pyrrolidine-3-carboxylic acid], the pIC50 against hPDE4D and on hPDE4B was greater than 5.30 in each case.
Turning to `COc1ccc(Cc2cnc(N3CCCC3C(=O)O)nc2)c(F)c1-c1cccc(Cl)c1` (stereo not shown) [Example A-040, 1-[5-(3′-Chloro-2-fluoro-6-methoxy-biphenyl-3-ylmethyl)-pyrimidin-2-yl]-pyrrolidine-2-carboxylic acid], the pIC50 against hPDE4D and against hPDE4B was greater than 5.30 in each case.
On to `COc1ccc(Cc2ccc(-c3nnn[nH]3)nc2)c(F)c1-c1cccc(Cl)c1` [Example A-042, 5-(3′-Chloro-2-fluoro-6-methoxy-biphenyl-3-ylmethyl)-2-(1H-tetrazol-5-yl)-pyridine], for which the pIC50 against hPDE4D and on hPDE4B was greater than 5.30 each time.
In the case of `COc1ccc(Cc2ccc3nc(C(=O)O)cn3c2)c(F)c1-c1cccc(Cl)c1` [Example A-043, 6-(3′-Chloro-2-fluoro-6-methoxy-biphenyl-3-ylmethyl)-imidazo[1,2-a]pyridine-2-carboxylic acid], the pIC50 is greater than 5.30 against hPDE4D and 4.70 to 5.30 against hPDE4B.
Turning to `COc1ccc(Cc2cnc(N3CCC(C(=O)O)C3)nc2)c(F)c1-c1cccc(Cl)c1` (stereo not shown) [Example A-044, 1-[5-(3′-Chloro-2-fluoro-6-methoxy-biphenyl-3-ylmethyl)-pyrimidin-2-yl]-pyrrolidine-3-carboxylic acid], the pIC50 on hPDE4D was greater than 5.30; against hPDE4B it was 4.40 to 4.70.
For `COc1ccc(Cc2cnc(N(C)CC(=O)O)nc2)c(F)c1-c1cccc(Cl)c1` [Example A-047, {[5-(3′-Chloro-2-fluoro-6-methoxy-biphenyl-3-ylmethyl)-pyrimidin-2-yl]-methyl-amino}-acetic acid] the same measures were greater than 5.30 and greater than 5.30.
For `CCOC(=O)C(=O)NCc1ccc(Cc2ccc(OC)c(-c3cccc(Cl)c3)c2F)cn1` [Example A-048, N-[5-(3′-Chloro-2-fluoro-6-methoxy-biphenyl-3-ylmethyl)-pyridin-2-ylmethyl]-oxalamic acid ethyl ester] the same measures were greater than 5.30 and greater than 5.30.
For `COc1ccc(Cc2cnc(N3CCC3C(=O)O)nc2)c(F)c1-c1cccc(Cl)c1` (stereo not shown) [Example A-049, 1-[5-(3′-Chloro-2-fluoro-6-methoxy-biphenyl-3-ylmethyl)-pyrimidin-2-yl]-azetidine-2-carboxylic acid] the same measures were greater than 5.30 and greater than 5.30.
As to `COc1ccc(Cc2ccc(C(=O)NS(C)(=O)=O)nc2)c(F)c1-c1cccc(Cl)c1` [Example A-050, N-[5-(3′-Chloro-2-fluoro-6-methoxy-biphenyl-3-ylmethyl)-pyridine-2-carbonyl]-methanesulfonamide], the pIC50 against hPDE4D and on hPDE4B was greater than 5.30 in each case.
Take `COc1ccc(Cc2ccc3cnc(C(=O)O)n3c2)c(F)c1-c1cccc(Cl)c1` [Example A-051, 6-(3′-Chloro-2-fluoro-6-methoxy-biphenyl-3-ylmethyl)-imidazo[1,5-a]pyridine-3-carboxylic acid hydrochloride]: the pIC50 against hPDE4D and at hPDE4B was greater than 5.30 throughout.
`COc1ccc(Cc2cnc(N3CC(C(=O)O)C3)nc2)c(F)c1-c1cccc(Cl)c1` [Example A-053, 1-[5-(3′-Chloro-2-fluoro-6-methoxy-biphenyl-3-ylmethyl)-pyrimidin-2-yl]-azetidine-3-carboxylic acid]: the pIC50 against hPDE4D is greater than 5.30; on hPDE4B it was 4.70 to 5.30.
For `COc1ccc(Cc2ccc(N3CCC3C(=O)O)nc2)c(F)c1-c1cccc(Cl)c1` (stereo not shown) [Example A-054] the same measures were greater than 5.30 and greater than 5.30.
For `COc1ccc(Cc2ccc(N(CC(=O)O)C(N)=O)nc2)c(F)c1-c1cccc(Cl)c1` [Example A-057, {1-[5-(3′-chloro-2-fluoro-6-methoxy-biphenyl-3-ylmethyl)-pyridin-2-yl]-ureido}-acetic acid] the same measures were greater than 5.30 and greater than 5.30.
For `COc1ccc(Cc2nnn[nH]2)c(F)c1-c1cccc(Cl)c1` [Example A-058, 5-(3′-Chloro-2-fluoro-6-methoxy-biphenyl-3-ylmethyl)-1H-tetrazole] the same measures were 4.70 to 5.30 and 4.40 to 4.70.
As to `COc1ccc(Cn2cnc(C(=O)O)c2)c(F)c1-c1cccc(Cl)c1` [Example A-059, 1-(3′-Chloro-2-fluoro-6-methoxy-biphenyl-3-ylmethyl)-1H-imidazole-4-carboxylic acid], the pIC50 is greater than 5.30 at hPDE4D and 4.70 to 5.30 at hPDE4B.
For `COc1ccc(Cn2cncc2C(=O)O)c(F)c1-c1cccc(Cl)c1` [Example A-060, 3-(3′-Chloro-2-fluoro-6-methoxy-biphenyl-3-ylmethyl)-3H-imidazole-4-carboxylic acid], in that order: greater than 5.30 and 4.70 to 5.30.
With `COc1ccc(Cc2ccc(N3CC[C@@H]3C(=O)O)nc2)c(F)c1-c1cccc(Cl)c1` [Example A-061, (R)-1-[5-(3′-chloro-2-fluoro-6-methoxy-biphenyl-3-ylmethyl)-pyridin-2-yl]-azetidine-2-carboxylic acid], the pIC50 on hPDE4D is greater than 5.30; against hPDE4B, 4.70 to 5.30.
`COc1ccc(Cc2ccc(N3CCC[C@H]3C(=O)O)nc2)c(F)c1-c1cccc(Cl)c1` [Example A-063, (S)-1-[5-(3′-chloro-2-fluoro-6-methoxy-biphenyl-3-ylmethyl)-pyridin-2-yl]-pyrrolidine-2-carboxylic acid]: the pIC50 against hPDE4D and on hPDE4B was greater than 5.30 each time.
As for `COc1ccc(C(O)c2ccc(NC(=O)NNC(C)=O)cc2)c(F)c1-c1cccc(Cl)c1` (stereo not shown) [Example A-065, 1-acetic amido-3-{4-[(3′-chloro-2-fluoro-6-methoxy-biphenyl-3-yl)-hydroxy-deutero-methyl]-phenyl}-urea], the pIC50 on hPDE4D (read-out: hPDE4D activity, enzyme-coupled NADH assay, absorbance at 340 nm) was greater than 5.30; on hPDE4B (read-out: hPDE4B activity, enzyme-coupled NADH assay, absorbance at 340 nm) it was 4.70 to 5.30.
Take `COc1ccc(Cc2ccc(N3CC[C@H]3C(=O)O)nc2)c(F)c1-c1cccc(Cl)c1` [Example A-066, (S)-1-[5-(3′-chloro-2-fluoro-6-methoxy-biphenyl-3-ylmethyl)-pyridin-2-yl]-azetidine-2-carboxylic acid]: the pIC50 against hPDE4D and on hPDE4B was greater than 5.30 throughout.
Take `COc1ccc(Cc2ccc(N3CCC3C(=O)O)nc2)cc1-c1cccc(Cl)c1` (stereo not shown) [Example A-067, 1-[5-(3′-chloro-6-methoxy-biphenyl-3-ylmethyl)-pyridin-2-yl]-azetidine-2-carboxylic acid acetate salt]: the pIC50 on hPDE4D was greater than 5.30; at hPDE4B, 4.70 to 5.30.
Take `COc1ccc(Cc2ccc(N3CCC[C@H]3C(=O)O)nc2)cc1-c1cccc(Cl)c1` [Example A-068, (S)-1-[5-(3′-chloro-6-methoxy-biphenyl-3-ylmethyl)-pyridin-2-yl]-pyrrolidine-2-carboxylic acid]: the pIC50 against hPDE4D and against hPDE4B was greater than 5.30 throughout.
For the compound `COc1ccc(Cc2ccc(N3CCCC(C(=O)O)C3)nc2)c(F)c1-c1cccc(Cl)c1` (stereo not shown) [Example A-070, 5′-(3′-Chloro-2-fluoro-6-methoxy-biphenyl-3-ylmethyl)-3,4,5,6-tetrahydro-2H-[1,2′]bipyridinyl-3-carboxylic acid], the pIC50 against hPDE4D was greater than 5.30; at hPDE4B it was 4.70 to 5.30.
